Experimental data as given in US7811797B2, “α-isomaltosylglucosaccharide-forming enzyme, process and uses of the same” (Kabushiki Kaisha Hayashibara Seibutsu Kagaku Kenkyujo, priority 2000, dated 2010).

Tests used:
Set-up in all cases: key: −: no saccharide-transferred product was detected through transfer reaction to acceptor; ∀: a saccharide-transferred product was detected in an amount less than one percent through transfer reaction to acceptor; +: a saccharide-transferred product was detected in an amount over one percent but less than ten percent through transfer reaction to acceptor; ++: a saccharide-transferred product was detected in an amount over ten percent through transfer reaction to acceptor
[1] = test system: α-isomaltosylglucosaccharide-forming enzyme; experiment: Transfer-acceptor specificity, Enzyme of Strain C9; type: biochemical, Bacillus globisporus C9; details: acceptor 1.6%, PINE-DEX #100 donor 4%, one unit/g donor, 30° C., pH 6.0, 24 hours
Protocol: (§1) Using different saccharides, it was tested whether the saccharides were used as transferring-acceptors for the α-isomaltosylglucosaccharide-forming enzyme of the present invention. A solution of D-glucose, D-xylose, L-xylose, D-galactose, D-fructose, D-mannose, D-arabinose, D-fucose, D-psicose, L-sorbose, L-rhamnose, methyl-α-glucopyranoside, methyl-β-glucopyranoside, N-acetyl-glucosamine, sorbitol, trehalose, isomaltose, isomaltotriose, cellobiose, gentibiose, glycerol, maltitol, lactose, sucrose, α-cyclodextrin, β-cyclodextrin, γ-cyclodextrin, or L-ascorbic acid was prepared.
(§2) To each solution with a saccharide concentration of 1.6% was added “PINE-DEX #100”, a partial starch hydrolysate, as a saccharide donor, to give a concentration of 4%, and admixed with one unit/g saccharide donor, d.s.b., of either of purified specimens of α-isomaltosylglucosaccharide-forming enzyme from Bacillus globisporus C9 obtained by the method in Experiment 4-2, Bacillus globisporus C11 obtained by the method in Experiment 7-2, Bacillus globisporus N75 obtained by the method in Experiment 11-2, or Arthrobacter globiformis A19 obtained by the method in Experiment 15-2, and incubated at 30° C. and pH 6.0, except that pH 8.4 was used for the enzyme from Arthrobacter globiformis A19, for 24 hours. The reaction mixtures of the post-enzymatic reactions were analyzed on gas chromatography (abbreviated as “GLC” hereinafter) for monosaccharides and disaccharides as acceptors, and on HPLC for trisaccharides as acceptors to confirm whether these saccharides could be used as their transfer acceptors. In the case of performing GLC, the following apparatuses and conditions are used: GLC apparatus, “GC-16A” commercialized by Shimadzu Corporation, Tokyo, Japan; column, a stainless-steel column, 3 mm in diameter and 2 m in length, packed with 2% “SILICONE OV-17/[…]”, commercialized by GL Sciences Inc., Tokyo, Japan; carrier gas, nitrogen gas at a flow rate of 40 ml/min under temperature conditions of increasing from 160° C. to 320° C. at an increasing temperature rate of 7.5° C./min; and detection, a hydrogen flame ionization detector. In the case of HPLC analysis, the apparatuses and conditions used are: HPLC apparatus, “CCPD” commercialized by Tosoh Corporation, Tokyo, Japan; column, “ODS-AQ-303” commercialized by YMC Co., Ltd., Tokyo, Japan; eluent, water at a flow rate of 0.5 ml/min; and detection, a differential refractometer.

[2] = test system: α-isomaltosylglucosaccharide-forming enzyme; experiment: Transfer-acceptor specificity, Enzyme of Strain C11; type: biochemical, Bacillus globisporus C11; details: acceptor 1.6%, PINE-DEX #100 donor 4%, one unit/g donor, 30° C., pH 6.0, 24 hours
Protocol: as §1, §2

[3] = test system: α-isomaltosylglucosaccharide-forming enzyme; experiment: Transfer-acceptor specificity, Enzyme of Strain N75; type: biochemical, Bacillus globisporus N75; details: acceptor 1.6%, PINE-DEX #100 donor 4%, one unit/g donor, 30° C., pH 6.0, 24 hours
Protocol: as §1, §2

[4] = test system: α-isomaltosylglucosaccharide-forming enzyme; experiment: Transfer-acceptor specificity, Enzyme of Strain A19; type: biochemical, Arthrobacter globiformis A19; details: acceptor 1.6%, PINE-DEX #100 donor 4%, one unit/g donor, 30° C., pH 8.4, 24 hours
Protocol: as §1, §2

SMILES: O=C[C@H](O)[C@@H](O)[C@H](O)[C@H](O)CO [D-Glucose, reference compound]
- Product of transferring reaction, Enzyme of Strain C9 [1]: + (a saccharide-transferred product was detected in an amount over one percent but less than ten percent through transfer reaction to acceptor)
- Product of transferring reaction, Enzyme of Strain C11 [2]: + (a saccharide-transferred product was detected in an amount over one percent but less than ten percent through transfer reaction to acceptor)
- Product of transferring reaction, Enzyme of Strain N75 [3]: + (a saccharide-transferred product was detected in an amount over one percent but less than ten percent through transfer reaction to acceptor)
- Product of transferring reaction, Enzyme of Stain A19 [4]: + (a saccharide-transferred product was detected in an amount over one percent but less than ten percent through transfer reaction to acceptor)

SMILES: OC[C@H]1O[C@@H]2O[C@H]3[C@H](O)[C@@H](O)[C@@H](O[C@H]4[C@H](O)[C@@H](O)[C@@H](O[C@H]5[C@H](O)[C@@H](O)[C@@H](O[C@H]6[C@H](O)[C@@H](O)[C@@H](O[C@H]7[C@H](O)[C@@H](O)[C@@H](O[C@H]8[C@H](O)[C@@H](O)[C@@H](O[C@H]1[C@H](O)[C@H]2O)O[C@@H]8CO)O[C@@H]7CO)O[C@@H]6CO)O[C@@H]5CO)O[C@@H]4CO)O[C@@H]3CO [β-Cyclodextrin]
- Product of transferring reaction, Enzyme of Strain C9 [1]: −
- Product of transferring reaction, Enzyme of Strain C11 [2]: −
- Product of transferring reaction, Enzyme of Strain N75 [3]: −
- Product of transferring reaction, Enzyme of Stain A19 [4]: −

SMILES: O=C(CO)[C@@H](O)[C@H](O)[C@@H](O)CO [L-Sorbose]
- Product of transferring reaction, Enzyme of Strain C9 [1]: + (a saccharide-transferred product was detected in an amount over one percent but less than ten percent through transfer reaction to acceptor)
- Product of transferring reaction, Enzyme of Strain C11 [2]: + (a saccharide-transferred product was detected in an amount over one percent but less than ten percent through transfer reaction to acceptor)
- Product of transferring reaction, Enzyme of Strain N75 [3]: + (a saccharide-transferred product was detected in an amount over one percent but less than ten percent through transfer reaction to acceptor)
- Product of transferring reaction, Enzyme of Stain A19 [4]: + (a saccharide-transferred product was detected in an amount over one percent but less than ten percent through transfer reaction to acceptor)

SMILES: CO[C@@H]1O[C@H](CO)[C@@H](O)[C@H](O)[C@H]1O [Methyl-β-glucopyranoside]
- Product of transferring reaction, Enzyme of Strain C9 [1]: ++ (a saccharide-transferred product was detected in an amount over ten percent through transfer reaction to acceptor)
- Product of transferring reaction, Enzyme of Strain C11 [2]: ++ (a saccharide-transferred product was detected in an amount over ten percent through transfer reaction to acceptor)
- Product of transferring reaction, Enzyme of Strain N75 [3]: ++ (a saccharide-transferred product was detected in an amount over ten percent through transfer reaction to acceptor)
- Product of transferring reaction, Enzyme of Stain A19 [4]: ++ (a saccharide-transferred product was detected in an amount over ten percent through transfer reaction to acceptor)

SMILES: OCC(O)CO [Glycerol]
- Product of transferring reaction, Enzyme of Strain C9 [1]: + (a saccharide-transferred product was detected in an amount over one percent but less than ten percent through transfer reaction to acceptor)
- Product of transferring reaction, Enzyme of Strain C11 [2]: + (a saccharide-transferred product was detected in an amount over one percent but less than ten percent through transfer reaction to acceptor)
- Product of transferring reaction, Enzyme of Strain N75 [3]: + (a saccharide-transferred product was detected in an amount over one percent but less than ten percent through transfer reaction to acceptor)
- Product of transferring reaction, Enzyme of Stain A19 [4]: + (a saccharide-transferred product was detected in an amount over one percent but less than ten percent through transfer reaction to acceptor)

SMILES: OC[C@H]1O[C@@H]2O[C@H]3[C@H](O)[C@@H](O)[C@@H](O[C@H]4[C@H](O)[C@@H](O)[C@@H](O[C@H]5[C@H](O)[C@@H](O)[C@@H](O[C@H]6[C@H](O)[C@@H](O)[C@@H](O[C@H]7[C@H](O)[C@@H](O)[C@@H](O[C@H]1[C@H](O)[C@H]2O)O[C@@H]7CO)O[C@@H]6CO)O[C@@H]5CO)O[C@@H]4CO)O[C@@H]3CO [α-Cyclodextrin]
- Product of transferring reaction, Enzyme of Strain C9 [1]: −
- Product of transferring reaction, Enzyme of Strain C11 [2]: −
- Product of transferring reaction, Enzyme of Strain N75 [3]: −
- Product of transferring reaction, Enzyme of Stain A19 [4]: −

SMILES: CO[C@H]1O[C@H](CO)[C@@H](O)[C@H](O)[C@H]1O [Methyl-α-glucopyranoside]
- Product of transferring reaction, Enzyme of Strain C9 [1]: ++ (a saccharide-transferred product was detected in an amount over ten percent through transfer reaction to acceptor)
- Product of transferring reaction, Enzyme of Strain C11 [2]: ++ (a saccharide-transferred product was detected in an amount over ten percent through transfer reaction to acceptor)
- Product of transferring reaction, Enzyme of Strain N75 [3]: ++ (a saccharide-transferred product was detected in an amount over ten percent through transfer reaction to acceptor)
- Product of transferring reaction, Enzyme of Stain A19 [4]: ++ (a saccharide-transferred product was detected in an amount over ten percent through transfer reaction to acceptor)

SMILES: O=C1O[C@H]([C@@H](O)CO)C(O)=C1O [L-Ascorbic acid]
- Product of transferring reaction, Enzyme of Strain C9 [1]: + (a saccharide-transferred product was detected in an amount over one percent but less than ten percent through transfer reaction to acceptor)
- Product of transferring reaction, Enzyme of Strain C11 [2]: + (a saccharide-transferred product was detected in an amount over one percent but less than ten percent through transfer reaction to acceptor)
- Product of transferring reaction, Enzyme of Strain N75 [3]: + (a saccharide-transferred product was detected in an amount over one percent but less than ten percent through transfer reaction to acceptor)
- Product of transferring reaction, Enzyme of Stain A19 [4]: + (a saccharide-transferred product was detected in an amount over one percent but less than ten percent through transfer reaction to acceptor)

SMILES: O=C(CO)[C@H](O)[C@H](O)[C@H](O)CO [D-Psicose]
- Product of transferring reaction, Enzyme of Strain C9 [1]: + (a saccharide-transferred product was detected in an amount over one percent but less than ten percent through transfer reaction to acceptor)
- Product of transferring reaction, Enzyme of Strain C11 [2]: + (a saccharide-transferred product was detected in an amount over one percent but less than ten percent through transfer reaction to acceptor)
- Product of transferring reaction, Enzyme of Strain N75 [3]: + (a saccharide-transferred product was detected in an amount over one percent but less than ten percent through transfer reaction to acceptor)
- Product of transferring reaction, Enzyme of Stain A19 [4]: + (a saccharide-transferred product was detected in an amount over one percent but less than ten percent through transfer reaction to acceptor)
